In US20100047776A1, “Cell-based screening assays for compounds that regulate the expresion of a tumor marker dj-1” (Caritas St. Elizabeth Medical Center of Boston Inc., priority 2005, published 2010):

Key:
human DJ-1 promoter = assay: DJ-1 promoter luciferase reporter assay in SH-SY5Y cells stably expressing −1000DJ-Luc; assay type: cell-based; conditions: SH-SY5Y cells stably expressing −1000DJ-Luc and CMV-β-galactosidase; increasing doses of H2O2 for 24 hours; untreated sample designated as 100; FIG. 2
Excerpt: (§1) To develop a cell-based assay system where one can identify agents that transcriptionally modulate DJ-1, a plasmid vector (−1000DJ-Luc) was made that expressed a luciferase reporter gene directed by the human DJ-1 promoter containing 1000 base pairs upstream and 65 base pairs downstream sequences (−1000 to +65) of the transcription initiation site (FIG. 1). A […] sequence containing +46 to +65 of the DJ-1 gene was fused to the luciferase gene to generate the control plasmid (0DJLuc). A neomycin resistance gene was inserted into the vectors as a selection marker.
(§2) Using the vector described in Example 1, human SH-SY5Y neuroblastoma cells were transfected with either −1000DJLuc or 0DJLuc; stably transfected clones were subsequently identified. A plasmid encoding β-galactosidase gene was co-transfected to serve as an internal control for luciferase expression.
(§3) To confirm the stable expression of the reporter genes and to evaluate these cells as devices for drug discovery, stably transfected SH-SY5Y cells were treated with increasing doses of H2O2, which has been reported to upregulate DJ-1. […] Luciferase and β-galactosidase activities were then determined. […]
(§4) C. […] Luciferase and β-galactosidase activities were determined using assay kits following manufacturer's protocol (Promega).

[1] = tested on: 0DJ-Luc (luciferase gene lacking the DJ-1 promoter sequence); assay: Luciferase reporter assay in control cell lines expressing 0DJ-Luc; assay type: cell-based, human; conditions: H2O2 treatment
Excerpt: as §1, §2, §3, §4

For `OO` [H2O2], the “Luciferase activity normalized to β-galactosidase activity (human DJ-1 promoter activation)” value (human DJ-1 promoter) was “activated the human DJ-1 promoter in a dose dependent manner” and the “Luciferase activity in control cell lines expressing 0DJ-Luc” value [1] was “not affected”.
